# PubChem BioAssay (NCI)
#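 Dose response: 5 concentrations. Exposure: 48 h. Format: 96-well plates. Endpoint: linear interpolation; highest concentration if not reached. At the TGI there is no net growth.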
# Tests used:
# Experiment in all cases: NCI anticancer screen, dose series, 48 h
# [1] = system: NCI/ADR-RES ovarian
# [2] = system: HOP-62 NSCLC
# [3] = system: TK-10 renal
# [4] = system: MDA-MB-435
# [5] = system: SW-620 colon
# [6] = system: MDA-N
# [7] = system: K-562 leukemia
# [8] = system: MALME-3M melanoma
# [9] = system: U251 CNS
# [10] = system: CAKI-1 renal
# [11] = system: HCC-2998 colon
# [12] = system: OVCAR-5 ovarian
# [13] = system: EKVX NSCLC
# [14] = system: RXF 393 renal
# [15] = system: ACHN renal
# [16] = system: SK-MEL-28 melanoma
# [17] = system: DU-145 prostate
# [18] = system: NCI-H226 lung
# [19] = system: SNB-19 CNS
# [20] = system: 786-0 renal
# [21] = system: SNB-75 CNS
# [22] = system: NCI-H522 lung
# [23] = system: HL-60(TB) leukemia
# [24] = system: KM12 colon
# [25] = system: SF-539 CNS
# [26] = system: SK-MEL-5 melanoma
# [27] = system: SK-MEL-2 melanoma
# [28] = system: HT29 colon
# [29] = system: OVCAR-4 ovarian
# [30] = system: OVCAR-3 ovarian
# [31] = system: MOLT-4 leukemia
# [32] = system: HCT-15 colon
# [33] = system: MCF7 breast
# [34] = system: SF-295 CNS
# [35] = system: UACC-257 melanoma
# [36] = system: HS 578T breast
# [37] = system: UACC-62 melanoma
# [38] = system: HOP-92 NSCLC
# [39] = system: SN12C renal
# [40] = system: BT-549 breast
# [41] = system: M14 melanoma
# [42] = system: SK-OV-3 ovarian
# [43] = system: A498 renal
# [44] = system: A549 NSCLC
# [45] = system: OVCAR-8 ovarian
# [46] = system: MDA-MB-231 breast
# [47] = system: NCI-H23 lung
# [48] = system: UO-31 renal
# [49] = system: COLO 205 colon
# [50] = system: PC-3 prostate
# [51] = system: T-47D breast
# [52] = system: CCRF-CEM leukemia
# [53] = system: SF-268 CNS
# [54] = system: NCI-H460 lung
# [55] = system: HCT-116 colon
# [56] = system: IGROV1 ovarian
# [57] = system: LOX IMVI melanoma
# [58] = system: RPMI-8226 leukemia
smiles,measurement,setting,value
O=C(c1ccc(Cl)cc1)N(C(=S)OC12CC3CC(CC(C3)C1)C2)c1ccccc1,TGI,[1],> 100 µM
same,TGI,[2],> 100 µM
same,TGI,[3],> 100 µM
same,TGI,[4],> 100 µM
same,TGI,[5],> 100 µM
same,TGI,[6],> 100 µM
same,TGI,[7],> 100 µM
same,TGI,[8],> 100 µM
same,TGI,[9],> 100 µM
same,TGI,[10],> 100 µM
same,TGI,[11],> 100 µM
same,TGI,[12],> 100 µM
same,TGI,[13],66.5 µM
same,TGI,[14],> 100 µM
same,TGI,[15],> 100 µM
same,TGI,[16],> 100 µM
same,TGI,[17],> 100 µM
same,TGI,[18],> 100 µM
same,TGI,[19],89.7 µM
same,TGI,[20],> 100 µM
same,TGI,[21],> 100 µM
same,TGI,[22],56.3 µM
same,TGI,[23],62.6 µM
same,TGI,[24],> 100 µM
same,TGI,[25],> 100 µM
same,TGI,[26],> 100 µM
same,TGI,[27],> 100 µM
same,TGI,[28],> 100 µM
same,TGI,[29],> 100 µM
same,TGI,[30],> 100 µM
same,TGI,[31],73.5 µM
same,TGI,[32],> 100 µM
same,TGI,[33],> 100 µM
same,TGI,[34],> 100 µM
same,TGI,[35],> 100 µM
same,TGI,[36],> 100 µM
same,TGI,[37],> 100 µM
same,TGI,[38],> 100 µM
same,TGI,[39],> 100 µM
same,TGI,[40],> 100 µM
same,TGI,[41],> 100 µM
same,TGI,[42],> 100 µM
same,TGI,[43],> 100 µM
same,TGI,[44],> 100 µM
same,TGI,[45],> 100 µM
same,TGI,[46],> 100 µM
same,TGI,[47],> 100 µM
same,TGI,[48],74.5 µM
same,TGI,[49],31.2 µM
same,TGI,[50],> 100 µM
same,TGI,[51],> 100 µM
same,TGI,[52],> 100 µM
same,TGI,[53],> 100 µM
same,TGI,[54],> 100 µM
same,TGI,[55],> 100 µM
C[C@]12CC[C@@H]3c4cc(Br)c(O)c(Br)c4CC[C@H]3[C@@H]1CC(Br)C2=O (stereo partly specified),TGI,[1],39.5 µM
same,TGI,[3],29.4 µM
same,TGI,[4],21.6 µM
same,TGI,[5],9.57 µM
same,TGI,[6],43.5 µM
same,TGI,[56],23.6 µM
same,TGI,[7],13.6 µM
same,TGI,[8],34.2 µM
same,TGI,[9],12.7 µM
same,TGI,[10],15.9 µM
same,TGI,[11],3.73 µM
same,TGI,[12],73.2 µM
same,TGI,[13],39.6 µM
same,TGI,[14],19.3 µM
same,TGI,[15],21.2 µM
same,TGI,[16],22.3 µM
same,TGI,[17],> 100 µM
same,TGI,[18],26.6 µM
same,TGI,[20],> 100 µM
same,TGI,[21],27.9 µM
same,TGI,[23],7.52 µM
same,TGI,[24],15.8 µM
same,TGI,[25],24.4 µM
same,TGI,[27],27.3 µM
same,TGI,[28],10.7 µM
same,TGI,[29],> 100 µM
same,TGI,[57],> 100 µM
same,TGI,[31],9.36 µM
same,TGI,[32],10.1 µM
same,TGI,[33],29.9 µM
same,TGI,[34],33.1 µM
same,TGI,[35],33.5 µM
same,TGI,[36],82.4 µM
same,TGI,[37],14.8 µM
same,TGI,[38],45.6 µM
same,TGI,[39],38.4 µM
same,TGI,[40],17.6 µM
same,TGI,[41],> 100 µM
same,TGI,[42],30.2 µM
same,TGI,[43],44.6 µM
same,TGI,[44],38.8 µM
same,TGI,[45],7.83 µM
same,TGI,[46],75 µM
same,TGI,[48],9.03 µM
same,TGI,[49],> 100 µM
same,TGI,[50],27.2 µM
same,TGI,[51],> 100 µM
same,TGI,[52],50.5 µM
same,TGI,[53],26.8 µM
same,TGI,[54],18.8 µM
same,TGI,[55],> 100 µM
CCO/C(O)=C(/C(=N)N1CCOCC1)C(=O)Nc1ccc(Cl)cc1,TGI,[1],> 100 µM
same,TGI,[2],> 100 µM
same,TGI,[3],> 100 µM
same,TGI,[4],> 100 µM
same,TGI,[5],> 100 µM
same,TGI,[6],> 100 µM
same,TGI,[56],> 100 µM
same,TGI,[7],> 100 µM
same,TGI,[8],> 100 µM
same,TGI,[9],> 100 µM
same,TGI,[10],> 100 µM
same,TGI,[11],> 100 µM
same,TGI,[12],> 100 µM
same,TGI,[13],> 100 µM
same,TGI,[14],> 100 µM
same,TGI,[15],> 100 µM
same,TGI,[16],> 100 µM
same,TGI,[17],> 100 µM
same,TGI,[18],> 100 µM
same,TGI,[19],> 100 µM
same,TGI,[20],> 100 µM
same,TGI,[21],> 100 µM
same,TGI,[22],> 100 µM
same,TGI,[23],> 100 µM
same,TGI,[24],> 100 µM
same,TGI,[25],> 100 µM
same,TGI,[27],> 100 µM
same,TGI,[28],> 100 µM
same,TGI,[29],> 100 µM
same,TGI,[57],> 100 µM
same,TGI,[30],> 100 µM
same,TGI,[31],> 100 µM
same,TGI,[32],> 100 µM
same,TGI,[33],> 100 µM
same,TGI,[34],> 100 µM
same,TGI,[58],> 100 µM
same,TGI,[35],> 100 µM
same,TGI,[36],> 100 µM
same,TGI,[37],> 100 µM
same,TGI,[39],> 100 µM
same,TGI,[40],> 100 µM
same,TGI,[41],> 100 µM
same,TGI,[42],> 100 µM
same,TGI,[43],> 100 µM
same,TGI,[44],> 100 µM
same,TGI,[45],> 100 µM
same,TGI,[46],> 100 µM
same,TGI,[47],> 100 µM
same,TGI,[49],> 100 µM
same,TGI,[50],> 100 µM
same,TGI,[51],> 100 µM
same,TGI,[52],> 100 µM
same,TGI,[53],> 100 µM
same,TGI,[54],> 100 µM
same,TGI,[55],> 100 µM
